# Laboratory results from PubChem BioAssay AID1845209 (Molecular Pharmacology Branch, DTP, NCI, 2023).
# Several values for one entry are separate records, joined by “and”; a condition that tells them apart may be missing. Equal entries are not always repeated.
# Test system: NCI-H211 tumor spheroids, viability percent test/control
# Test: Anticancer human tumor NCI-H211 cell line growth inhibition;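 also: spheroids exposed to agents for seven days before readout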
# Settings: spheroids with HUVEC and MSC; for viability, T/C: stronger effect = lower value
# Method in brief: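 Complex spheroids of malignant cells with endothelial cells and mesenchymal stem cells; agents alone or combined, from near clinical Cmax (or 10 microM if unknown) down in half-log steps, 0.25% DMSO final.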
structure (smiles),measurement,setting,value
CC1COCCN1c1cc(-c2ccnn2C)c2ccnc(-c3ccn[nH]3)c2n1 (centres undefined) + CC[C@@]1(O)C(=O)OCc2c1cc1n(c2=O)Cc2cc3c(CN(C)C)c(O)ccc3nc2-1,IC50,"curve of first compound, second compound 0.003 µM",< 0.0316 µM
same,IC50,"curve of first compound, second compound 0.00949 µM",< 0.0316 µM
same,IC50,"curve of first compound, second compound 0.03 µM",< 0.0316 µM
same,IC50,"curve of first compound, second compound 0.0949 µM",< 0.0316 µM
same,IC50,"curve of first compound, second compound 0.3 µM",< 0.0316 µM
same,"viability, T/C","second compound 0.003 µM, first compound 0.0316 µM",1.02%
same,"viability, T/C","second compound 0.003 µM, first compound 0.1 µM",1.19%
same,"viability, T/C","second compound 0.003 µM, first compound 0.316 µM",1.59%
same,"viability, T/C","second compound 0.003 µM, first compound 1 µM",0.56%
same,"viability, T/C","second compound 0.003 µM, first compound 3.16 µM",0.45%
same,"viability, T/C","second compound 0.003 µM, first compound 10 µM",0.65%
same,"viability, T/C","second compound 0.00949 µM, first compound 0.0316 µM",1.86%
same,"viability, T/C","second compound 0.00949 µM, first compound 0.1 µM",0.7%
same,"viability, T/C","second compound 0.00949 µM, first compound 0.316 µM",1.15%
same,"viability, T/C","second compound 0.00949 µM, first compound 1 µM",0.42%
same,"viability, T/C","second compound 0.00949 µM, first compound 3.16 µM",0.4%
same,"viability, T/C","second compound 0.00949 µM, first compound 10 µM",0.58%
same,"viability, T/C","second compound 0.03 µM, first compound 0.0316 µM",1.1%
same,"viability, T/C","second compound 0.03 µM, first compound 0.1 µM",1.24%
same,"viability, T/C","second compound 0.03 µM, first compound 0.316 µM",0.67%
same,"viability, T/C","second compound 0.03 µM, first compound 1 µM",1.07%
same,"viability, T/C","second compound 0.03 µM, first compound 3.16 µM",0.38%
same,"viability, T/C","second compound 0.03 µM, first compound 10 µM",0.47%
same,"viability, T/C","second compound 0.0949 µM, first compound 0.0316 µM",0.72%
same,"viability, T/C","second compound 0.0949 µM, first compound 0.1 µM",0.9%
same,"viability, T/C","second compound 0.0949 µM, first compound 0.316 µM",0.83%
same,"viability, T/C","second compound 0.0949 µM, first compound 1 µM",0.52%
same,"viability, T/C","second compound 0.0949 µM, first compound 3.16 µM",0.66%
same,"viability, T/C","second compound 0.0949 µM, first compound 10 µM",1.17%
same,"viability, T/C","second compound 0.3 µM, first compound 0.0316 µM",1%
same,"viability, T/C","second compound 0.3 µM, first compound 0.1 µM",0.97%
same,"viability, T/C","second compound 0.3 µM, first compound 0.316 µM",0.71%
same,"viability, T/C","second compound 0.3 µM, first compound 1 µM",0.83%
same,"viability, T/C","second compound 0.3 µM, first compound 3.16 µM",1.25%
same,"viability, T/C","second compound 0.3 µM, first compound 10 µM",0.81%
O=C(c1cc(Cc2n[nH]c(=O)c3ccccc23)ccc1F)N1CCN(C(=O)C2CC2)CC1 + Cn1nnc2c(C(N)=O)ncn2c1=O,IC50,"curve of first compound, second compound 1 µM",< 0.0949 µM
same,IC50,"curve of first compound, second compound 3.16 µM",< 0.0949 µM
same,IC50,"curve of first compound, second compound 10 µM",< 0.0949 µM
same,IC50,"curve of first compound, second compound 31.6 µM",< 0.0949 µM
same,IC50,"curve of first compound, second compound 100 µM",< 0.0949 µM
same,"viability, T/C","second compound 1 µM, first compound 0.0949 µM",38.8%
same,"viability, T/C","second compound 1 µM, first compound 0.3 µM",24.3%
same,"viability, T/C","second compound 1 µM, first compound 0.949 µM",9.48%
same,"viability, T/C","second compound 1 µM, first compound 3 µM",11.2%
same,"viability, T/C","second compound 1 µM, first compound 9.49 µM",7.85%
same,"viability, T/C","second compound 1 µM, first compound 30 µM",6.43%
same,"viability, T/C","second compound 3.16 µM, first compound 0.0949 µM",39.2%
same,"viability, T/C","second compound 3.16 µM, first compound 0.3 µM",16.4%
same,"viability, T/C","second compound 3.16 µM, first compound 0.949 µM",12.2%
same,"viability, T/C","second compound 3.16 µM, first compound 3 µM",8.6%
same,"viability, T/C","second compound 3.16 µM, first compound 9.49 µM",8.67%
same,"viability, T/C","second compound 3.16 µM, first compound 30 µM",6.42%
same,"viability, T/C","second compound 10 µM, first compound 0.0949 µM",20.4%
same,"viability, T/C","second compound 10 µM, first compound 0.3 µM",13.6%
same,"viability, T/C","second compound 10 µM, first compound 0.949 µM",8.65%
same,"viability, T/C","second compound 10 µM, first compound 3 µM",8.76%
same,"viability, T/C","second compound 10 µM, first compound 9.49 µM",8.42%
same,"viability, T/C","second compound 10 µM, first compound 30 µM",5.87%
same,"viability, T/C","second compound 31.6 µM, first compound 0.0949 µM",9.76%
same,"viability, T/C","second compound 31.6 µM, first compound 0.3 µM",10.7%
same,"viability, T/C","second compound 31.6 µM, first compound 0.949 µM",8.79%
same,"viability, T/C","second compound 31.6 µM, first compound 3 µM",8.73%
same,"viability, T/C","second compound 31.6 µM, first compound 9.49 µM",8.23%
same,"viability, T/C","second compound 31.6 µM, first compound 30 µM",6.62%
same,"viability, T/C","second compound 100 µM, first compound 0.0949 µM",10.7%
same,"viability, T/C","second compound 100 µM, first compound 0.3 µM",9.41%
same,"viability, T/C","second compound 100 µM, first compound 0.949 µM",10.1%
same,"viability, T/C","second compound 100 µM, first compound 3 µM",9.99%
same,"viability, T/C","second compound 100 µM, first compound 9.49 µM",8.37%
same,"viability, T/C","second compound 100 µM, first compound 30 µM",6.94%
Cc1sc2c(c1C)C(c1ccc(Cl)cc1)=NC(CC(=O)Nc1ccc(O)cc1)c1nnc(C)n1-2 (centres undefined),"viability, T/C",compound 0.00949 µM,22.6% and 55.5% and 64.2%
same,"viability, T/C",compound 0.03 µM,3.79% and 7.14% and 8.47%
same,"viability, T/C",compound 0.0949 µM,1.01% and 1.07% and 0.73%
same,"viability, T/C",compound 0.3 µM,0.87% and 0.68% and 0.48%
same,"viability, T/C",compound 0.949 µM,0.92% and 0.62% and 0.4%
same,"viability, T/C",compound 3 µM,0.83% and 0.65% and 0.43%
same,IC50,curve of compound,< 0.00949 µM and 0.0108 µM and 0.0127 µM
Cn1ncnc1[C@H]1c2n[nH]c(=O)c3cc(F)cc(c23)N[C@@H]1c1ccc(F)cc1,"viability, T/C",compound 0.00949 µM,1.22% and 3.94% and 1.23%
same,"viability, T/C",compound 0.03 µM,1.16% and 3.82% and 0.82%
same,"viability, T/C",compound 0.0949 µM,1.19% and 4.14% and 0.91%
same,"viability, T/C",compound 0.3 µM,1.37% and 3.79% and 0.88%
same,"viability, T/C",compound 0.949 µM,1.35% and 4.02% and 0.84%
same,"viability, T/C",compound 3 µM,1.37% and 3.65% and 1.07%
same,IC50,curve of compound,< 0.00949 µM
